This is an account of results in patent US20090197930A1, “Eyedrops” (priority 2006, published 2009).

The conditions of the data set: administered at high concentration.

SMILES strings stand for the structures.

For `O=C1CN(/N=C/c2ccc(-c3ccc([N+](=O)[O-])cc3)o2)C(=O)[N-]1.[Na+]` [dantrolene, Dantrolene sodium], the miosis entry is reported as “strong miosis”, the myopic inclination result is “myopic inclination is stronger” and the pupillary reaction result is recorded as “pupillary reaction becomes dull”.
